Values after ≈ are worked out from the molar mass of the structure shown. Starred links: 1 amine or outer side, 2 acyl side, 3 side chain; linkers in the order of their positions; H or OH if unused. Positions of bridges follow the written chain, without caps; N, C: chain ends. Non-standard residues stand in square brackets, D forms with d. Residues, ends and D or L forms follow the SMILES beside them. *: point of attachment. pTerphenylCO(4''-OnC5H11) = CCCCCOc1ccc(-c2ccc(-c3ccc(C(=O)*)cc3)cc2)cc1; Pro(cis-4-guanidino) = NC(N)=N[C@@H]1CN[C@H](C(=O)O)C1; hTyr(3-COCH2NH2) = NCC(=O)c1cc(CC[C@H](N)C(=O)O)ccc1O; X1 = NCC(=O)Nc1cc(CC[C@H](N[*:1])C(=O)[*:2])ccc1O; X4 = NCCC(=O)c1cc(CC[C@H](N[*:1])C(=O)[*:2])ccc1O; X2 = NC(N)=N[C@H]1CC(C(=O)[*:2])N([*:1])C1; Pro(4S-NH2) = N[C@@H]1CN[C@H](C(=O)O)C1; Hyp = O=C(O)[C@@H]1C[C@@H](O)CN1; Orn = NCCC[C@H](N)C(=O)O
Legend:
Aspergillus niger = test: Antifungal activity against Aspergillus niger ATCC 16404; type: functional
Candida albicans [1] = test: Antifungal activity against Candida albicans 579A; type: functional
Candida albicans [2] = test: Antifungal activity against Candida albicans ATCC 38247; type: functional
Kluyveromyces marxianus = test: Antifungal activity against Candida kefyr ATCC 28838; type: functional
Candida albicans [3] = test: Antifungal activity against Candida albicans ATCC 62376; type: functional
[Candida] zeylanoides = Antifungal activity against Candida zeylanoides NRRL Y-112; type: functional
Candida albicans [4] = test: Antifungal activity against Candida albicans CAF-2; type: functional
Candida albicans [5] = test: Antifungal activity against Candida albicans ATCC 10231; type: functional
Candida albicans [6] = test: Antifungal activity against Candida albicans CCH 442; type: functional
Nakaseomyces glabratus = test: Antifungal activity against Torulopsis glabrata ATCC 15545; type: functional
Naganishia albida = test: Antifungal activity against Cryptococcus albidus ATCC 34140; type: functional
[7] = Volume of distribution was measured in dog after an iv dose of 1 mg/kg; type: ADME, organism-based, Canis lupus familiaris; set-up: dose 1 mg/kg, route intravenous; details: in vivo, read-out: Vv
[8] = Plasma clearance for the compound was measured in monkey after an iv dose of 1 mg/kg; type: ADME, organism-based; set-up: dose 1 mg/kg, route intravenous; details: cercopithecidae, read-out: Clp (converted)
[9] = Volume of distribution was measured in mouse after an iv dose of 1 mg/kg; type: ADME, organism-based; set-up: dose 1 mg/kg, route intravenous; details: in vivo, read-out: Vv
[10] = Plasma clearance for the compound was measured in rat after an iv dose of 1 mg/kg; type: ADME, organism-based; set-up: dose 1 mg/kg, route intravenous; details: read-out: Clp (converted)
[11] = Area under the curve was measured in monkey after an iv dose of 1 mg/kg; type: ADME, organism-based; set-up: dose 1 mg/kg, route intravenous; details: cercopithecidae, in vivo
[12] = Plasma clearance for the compound was measured in mouse after an iv dose of 1 mg/kg; type: ADME, organism-based; set-up: dose 1 mg/kg, route intravenous; details: read-out: Clp (converted)
[13] = Terminal phase volume of distribution was measured in monkey after an iv dose of 1 mg/kg; type: ADME, organism-based; set-up: dose 1 mg/kg, route intravenous; details: cercopithecidae, in vivo, read-out: Va beta
[14] = Area under the curve was measured in rat after an iv dose of 1 mg/kg; type: ADME, organism-based; set-up: dose 1 mg/kg, route intravenous; details: in vivo
[15] = Half-life was measured in rat after an iv dose of 1 mg/kg; type: ADME, organism-based; set-up: dose 1 mg/kg, route intravenous; details: in vivo
[16] = Plasma clearance for the compound was measured in dog after an iv dose of 1 mg/kg; type: ADME, organism-based, Canis lupus familiaris; set-up: dose 1 mg/kg, route intravenous; details: read-out: Clp (converted)
[17] = Area under the curve was measured in mouse after an iv dose of 1 mg/kg; type: ADME, organism-based; set-up: dose 1 mg/kg, route intravenous; details: in vivo
[18] = Volume of distribution was measured in rat after an iv dose of 1 mg/kg; type: ADME, organism-based; set-up: dose 1 mg/kg, route intravenous; details: in vivo, read-out: Vv
[19] = Volume of distribution was measured in monkey after an iv dose of 1 mg/kg; type: ADME, organism-based; set-up: dose 1 mg/kg, route intravenous; details: cercopithecidae, in vivo, read-out: Vv
[20] = Half-life was measured in dog after an iv dose of 1 mg/kg; type: ADME, organism-based, Canis lupus familiaris; set-up: dose 1 mg/kg, route intravenous; details: in vivo
[21] = Area under the curve was measured in dog after an iv dose of 1 mg/kg; type: ADME, organism-based, Canis lupus familiaris; set-up: dose 1 mg/kg, route intravenous; details: in vivo
[22] = Terminal phase volume of distribution was measured in rat after an iv dose of 1 mg/kg; type: ADME, organism-based; set-up: dose 1 mg/kg, route intravenous; details: in vivo, read-out: Va beta
[23] = Half-life was measured in mouse after an iv dose of 1 mg/kg; type: ADME, organism-based; set-up: dose 1 mg/kg, route intravenous; details: in vivo
[24] = Terminal phase volume of distribution was measured in dog after an iv dose of 1 mg/kg; type: ADME, organism-based, Canis lupus familiaris; set-up: dose 1 mg/kg, route intravenous; details: in vivo, read-out: Va beta
[25] = Terminal phase volume of distribution was measured in mouse after an iv dose of 1 mg/kg; type: ADME, organism-based; set-up: dose 1 mg/kg, route intravenous; details: in vivo, read-out: Va beta
[26] = Half-life was measured in monkey after an iv dose of 1 mg/kg; type: ADME, organism-based; set-up: dose 1 mg/kg, route intravenous; details: cercopithecidae, in vivo
[27] = Aspergillus niger, ATCC 16404, read-out: MIC
[28] = Candida albicans, read-out: MIC
[29] = Kluyveromyces marxianus, ATCC 28838, read-out: MIC
[30] = Candida albicans, ATCC 62376, read-out: MIC
[31] = Nakaseomyces glabratus, ATCC 15545, read-out: MIC
[32] = Naganishia albida, ATCC 34140, read-out: MIC
[33] = Candida albicans, ATCC 38247, read-out: MIC
[34] = Dujonia zeylanoides, read-out: MIC
[35] = Candida albicans, ATCC 10231, read-out: MIC

SMILES | MIC (Aspergillus niger; [27]) | MIC (Candida albicans [1]; [28]) | MIC (Candida albicans [2]) | MIC (Kluyveromyces marxianus; [29]) | MIC (Candida albicans [3]; [30]) | MIC ([Candida] zeylanoides) | MIC (Candida albicans [4]; [28]) | MIC (Candida albicans [5]) | MIC (Candida albicans [6]) | MIC (Nakaseomyces glabratus; [31]) | MIC (Naganishia albida; [32]) | MIC (Candida albicans [2]; [33]) | MIC ([Candida] zeylanoides; [34]) | MIC (Candida albicans [5]; [35]) | MIC (Candida albicans [6]; [28]) | other results
CCCCCOc1ccc(-c2ccc(-c3ccc(C(=O)N[C@H]4CCCNC(=O)[C@@H]5C[C@H](N=C(N)N)CN5C(=O)[C@H]([C@@H](C)O)NC(=O)[C@H](CCc5ccc(O)c(C(=O)CN)c5)NC(=O)[C@@H]5C[C@@H](O)CN5C(=O)[C@H]([C@@H](C)O)NC4=O)cc3)cc2)cc1 (stereo in doubt; 1) | 6.25 mg/L (≈ 5.39 µM) | 0.2 mg/L (≈ 0.172 µM) | 0.2 mg/L (≈ 0.172 µM) | 1.56 mg/L (≈ 1.34 µM) | 0.2 mg/L (≈ 0.172 µM) | 0.39 mg/L (≈ 0.336 µM) | 0.2 mg/L (≈ 0.172 µM) | 0.2 mg/L (≈ 0.172 µM) | 0.2 mg/L (≈ 0.172 µM) | 1.56 mg/L (≈ 1.34 µM) | 12.5 mg/L (≈ 10.8 µM) |  |  |  |  | 
CCCCCOc1ccc(-c2ccc(-c3ccc(C(=O)N[C@H]4CCCNC(=O)[C@@H]5C[C@H](N=C(N)N)CN5C(=O)[C@H]([C@@H](C)O)NC(=O)[C@H](CCc5ccc(O)c(C(=O)CN)c5)NC(=O)[C@@H]5C[C@@H](O)CN5C(=O)[C@H]([C@@H](C)O)NC4=O)cc3)cc2)cc1 (stereo in doubt; 4) |  |  | 0.78 mg/L (≈ 0.672 µM) |  |  | 1.56 mg/L (≈ 1.34 µM) |  | 0.78 mg/L (≈ 0.672 µM) | 0.78 mg/L (≈ 0.672 µM) |  |  |  |  |  |  | MIC (Aspergillus niger): 6.25 mg/L (≈ 5.39 µM); MIC (Candida albicans [1]): 0.39 mg/L (≈ 0.336 µM); MIC (Kluyveromyces marxianus): 0.78 mg/L (≈ 0.672 µM); MIC (Candida albicans [3]): 0.39 mg/L (≈ 0.336 µM); MIC (Candida albicans [4]): 0.39 mg/L (≈ 0.336 µM); MIC (Nakaseomyces glabratus): 1.56 mg/L (≈ 1.34 µM); MIC (Naganishia albida): 6.25 mg/L (≈ 5.39 µM)
CCCCCOc1ccc(-c2ccc(-c3ccc(C(=O)N[C@H]4CCCNC(=O)[C@@H]5C[C@H](N=C(N)N)CN5C(=O)[C@H]([C@@H](C)O)NC(=O)[C@H](CCc5ccc(O)c(C(=O)CN)c5)NC(=O)[C@@H]5CCCN5C(=O)[C@H]([C@@H](C)O)NC4=O)cc3)cc2)cc1 ({pTerphenylCO(4''-OnC5H11)}-[Orn]TP[hTyr(3-COCH2NH2)]T[Pro(cis-4-guanidino)]; lactam 1-C) | 25 mg/L (≈ 21.8 µM) | 0.2 mg/L (≈ 0.175 µM) |  | 1.56 mg/L (≈ 1.36 µM) | 0.2 mg/L (≈ 0.175 µM) |  | 0.1 mg/L (≈ 0.0874 µM) |  |  | 0.39 mg/L (≈ 0.341 µM) | 25 mg/L (≈ 21.8 µM) | 0.39 mg/L (≈ 0.341 µM) | 0.39 mg/L (≈ 0.341 µM) | 0.39 mg/L (≈ 0.341 µM) | 0.2 mg/L (≈ 0.175 µM) | 
CCCCCOc1ccc(-c2ccc(-c3ccc(C(=O)N[C@H]4CCCNC(=O)C5C[C@H](N=C(N)N)CN5C(=O)[C@H]([C@@H](C)O)NC(=O)[C@H](CCc5ccc(O)c(NC(=O)CN)c5)NC(=O)[C@@H]5C[C@@H](O)CN5C(=O)[C@H]([C@@H](C)O)NC4=O)cc3)cc2)cc1 (stereo not given in full) ({pTerphenylCO(4''-OnC5H11)}-[Orn]T[Hyp][X1]T[X2]; lactam 1-C) |  |  |  |  |  |  |  |  |  |  |  |  |  |  |  | Vd [7]: 0.6 L/kg; clearance [8]: 0.17 L/h/kg; Vd [9]: 0.4 L/kg; clearance [10]: 0.14 L/h/kg; AUC [11]: 6.55 µg·h/mL; clearance [12]: 0.06 L/h/kg; Vd [13]: 0.9 L/kg; AUC [14]: 11.7 µg·h/mL; half-life [15]: 7.4 h; clearance [16]: 0.03 L/h/kg; AUC [17]: 16.8 µg·h/mL; Vd [18]: 0.6 L/kg; Vd [19]: 0.2 L/kg; half-life [20]: 30.4 h; AUC [21]: 36.4 µg·h/mL; Vd [22]: 2.2 L/kg; half-life [23]: 11.5 h; Vd [24]: 1.3 L/kg; Vd [25]: 1 L/kg; half-life [26]: 3.3 h
CCCCCOc1ccc(-c2ccc(-c3ccc(C(=O)N[C@H]4CCCNC(=O)[C@@H]5C[C@H](N=C(N)N)CN5C(=O)[C@H]([C@@H](C)O)NC(=O)[C@H](CCc5ccc(O)c(C(=O)CCN)c5)NC(=O)[C@@H]5C[C@@H](O)CN5C(=O)[C@H]([C@@H](C)O)NC4=O)cc3)cc2)cc1 ({pTerphenylCO(4''-OnC5H11)}-[Orn]T[Hyp][X4]T[Pro(cis-4-guanidino)]; lactam 1-C) | 6.25 mg/L (≈ 5.32 µM) | 0.2 mg/L (≈ 0.17 µM) |  | 1.56 mg/L (≈ 1.33 µM) | 0.2 mg/L (≈ 0.17 µM) |  | 0.2 mg/L (≈ 0.17 µM) |  |  | 1.56 mg/L (≈ 1.33 µM) | 12.5 mg/L (≈ 10.6 µM) | 0.2 mg/L (≈ 0.17 µM) | 0.39 mg/L (≈ 0.332 µM) | 0.39 mg/L (≈ 0.332 µM) | 0.2 mg/L (≈ 0.17 µM) | 
CCCCCOc1ccc(-c2ccc(-c3ccc(C(=O)N[C@H]4CCCNC(=O)[C@@H]5C[C@H](N)CN5C(=O)[C@H]([C@@H](C)O)NC(=O)[C@H](CCc5ccc(O)c(C(=O)CN)c5)NC(=O)[C@@H]5C[C@@H](O)CN5C(=O)[C@H]([C@@H](C)O)NC4=O)cc3)cc2)cc1 ({pTerphenylCO(4''-OnC5H11)}-[Orn]T[Hyp][hTyr(3-COCH2NH2)]T[Pro(4S-NH2)]; lactam 1-C) | 0.2 mg/L (≈ 0.179 µM) | 0.01 mg/L (≈ 0.00894 µM) |  | 0.78 mg/L (≈ 0.697 µM) | 0.1 mg/L (≈ 0.0894 µM) |  | 0.1 mg/L (≈ 0.0894 µM) |  |  | 0.2 mg/L (≈ 0.179 µM) | 3.2 mg/L (≈ 2.86 µM) | 0.2 mg/L (≈ 0.179 µM) | 0.1 mg/L (≈ 0.0894 µM) | 0.1 mg/L (≈ 0.0894 µM) | 0.01 mg/L (≈ 0.00894 µM) | 

Reference: ChEMBL document CHEMBL1136559, “Discovery, SAR, synthesis, pharmacokinetic and biochemical characterization of A-192411: a novel fungicidal lipopeptide-(I)” (Bioorg Med Chem Lett, 2003)
